Experimental data as given in patent publication US11754547B2, “Biorecognition elements for detection of fungi and bacteria in fuel systems” (priority 2020, dated 2023).

What was measured:
Assay in all cases: Western blot of phage-displayed peptide BRE binding to biotinylated target peptide
[1] = tested on: CHI-P1 (SEQ. ID No. 25), Chitinase; set-up: species or system fungi; conditions: phage clone with biotinylated target peptide, streptavidin bead pull-down; FIG. 4
From the text: (§1) Recombinant phage clones were selected using X-Gal/IPTG, which produced a blue color on phage infected E. coli colonies. After the amplification of multiple phage isolates carrying a single heptapeptide sequence (i.e., monoclonal phages), genomic DNA was isolated and sequenced to determine the aa sequences of the peptide BREs. Isolated monoclonal phages were sequenced after each round of selection. After four rounds of selection, the phage pool was enriched for target-binding phages with specific sequences. […] The binding of phages displaying specific peptide BREs to the target was assessed by Western blot analysis. Monoclonal target-specific bacteriophages were incubated with biotinylated target peptide epitope under conditions similar to those used in biopanning. The resulting phage-target complexes were recovered using streptavidin-coated magnetic beads, and the phage-target complexes were resolved via SDS-PAGE and detected by Western blot using antibodies against the M13 phage capsid and the biotin molecule attached to the specific target. Western blotting was performed by preparing a 200 μL solution with each of the phage clones at a concentration of 1×10^11 pfu/mL in 1×TBS, pH 7.5. Then, 10 μL of biotinylated target peptide of concentration 1 mg/mL was added to each phage solution and incubated at 25° C. for 1 hr. […]

[2] = tested on: Gor-Fasciclin (SEQ. ID No. 58), Gordonia-Fasciclin; conditions: phage clone with biotinylated target peptide, streptavidin bead pull-down; FIG. 5
From the text: as §1, with “hr. Phage-biotin target complexes were captured and pull-down with 25 μL of streptavidin-coated beads, and the captured complexes washed five times with 1×TBST. The pelleted complexes were re-suspended in 20 μL of 2× Laemmli Buffer, heated to 95° C. for 5 min, and resolved in a 14% SDS-PAGE gel. Proteins were blotted to a nitrocellulose membrane and blocked with TBST containing 5% BSA. To detect phages, a 1:2000 dilution of rabbit anti-M13 phage antibody (primary antibody) followed by a 1:5000 dilution of alkaline phosphatase (AP)-conjugated goat anti-rabbit antibody was used. For detection of biotinylated target, a 1:2000 dilution of AP-conjugated goat anti-biotin antibody was used. For colorimetric visualization, BCIP/NBT reagent was used.” for “hr.”

[3] = tested on: ALK-P3 (SEQ. ID No. 1), P450 Alkane Hydroxylase; set-up: species or system fungi; conditions: phage clone with biotinylated target peptide, streptavidin bead pull-down; FIG. 4
From the text: as §1

Sequence of Gor-Fasciclin (SEQ. ID No. 58), Gordonia-Fasciclin (as listed by the source): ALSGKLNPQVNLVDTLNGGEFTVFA
Sequence of ALK-P3 (SEQ. ID No. 1), P450 Alkane Hydroxylase (as listed by the source): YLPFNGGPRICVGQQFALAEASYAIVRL

Substance: MPPHGDR (Artificial Sequence Obtained Through Biopanning) [SEQ. ID No. 26]
- binding to CHI-P1 (SEQ. ID No. 25) target, Western blot [1]: specific binding

Substance: RSLGYTG (Artificial Sequence Obtained Through Biopanning) [SEQ. ID No. 60]
- binding to Gor-Fasciclin (SEQ. ID No. 58) target, Western blot [2]: specific binding

Substance: TWTLARP (Artificial Sequence Obtained Through Biopanning) [SEQ. ID No. 59]
- binding to Gor-Fasciclin (SEQ. ID No. 58) target, Western blot [2]: specific binding

Substance: WSLGYTG (Artificial Sequence Obtained Through Biopanning) [SEQ. ID No. 2]
- binding to ALK-P3 (SEQ. ID No. 1) target, Western blot [3]: specific binding

Substance: YVPEWVS (Artificial Sequence Obtained Through Biopanning) [SEQ. ID No. 61]
- binding to Gor-Fasciclin (SEQ. ID No. 58) target, Western blot [2]: specific binding
